The Ki is a measure of affinity in units of concentration, obtained from inhibition or displacement. Low values mean higher affinity, high ones lower affinity.

From patent US6613903B2, “Modulators of protein tyrosine phosphatases (PTPases)” (Novo Nordisk A/S, priority 2000, dated 2003) come the findings set out here.

This assay concerns the target T1, truncated form of PTP1 B (corresponding to the first 321 amino acids) (Homo sapiens, UniProt P18031).
T1 construct: truncated form of PTP1 B (corresponding to the first 321 amino acids); made in house; host or cells: E. coli
T1 sequence (P18031 1-321): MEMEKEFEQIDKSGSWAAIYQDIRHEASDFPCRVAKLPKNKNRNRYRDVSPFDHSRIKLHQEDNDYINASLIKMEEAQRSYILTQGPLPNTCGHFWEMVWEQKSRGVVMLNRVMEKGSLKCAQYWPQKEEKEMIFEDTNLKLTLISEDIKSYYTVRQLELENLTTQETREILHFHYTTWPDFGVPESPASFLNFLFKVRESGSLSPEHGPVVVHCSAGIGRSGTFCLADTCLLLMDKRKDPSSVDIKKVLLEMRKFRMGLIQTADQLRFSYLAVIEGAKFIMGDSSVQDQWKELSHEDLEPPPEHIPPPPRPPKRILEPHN
The assay can be described thus: Inhibition of PTP1B, p-nitrophenyl phosphate as substrate, enzyme kinetics. The conditions noted are these: truncated PTP1B expressed in E. coli; substrate p-nitrophenyl phosphate 0.16 to 10 mM; sodium acetate pH 5.5; 25° C. for 60 minutes; absorbance at 405 nm. The format is biochemical. How it is done: The compounds are evaluated for biological activity with a truncated form of PTP1 B (corresponding to the first 321 amino acids), which was expressed in E. coli and purified to apparent homogeneity using published procedures well-known to those skilled in the art. The enzyme reactions are carried out using standard conditions essentially as described by Burke et al. (Biochemistry 35; 15989-15996 (1996)). The assay conditions are as follows. Appropriate concentrations of the compounds of the invention are added to the reaction mixtures containing different concentrations of the substrate, p-nitrophenyl phosphate (range: 0.16 to 10 mM—final assay concentration). The buffer used was 100 mM sodium acetate pH 5.5, 50 mM sodium chloride, 0.1% (w/v) bovine serum albumin and 5 mM dithiothreitol (total volume […]). The reaction was started by addition of the enzyme and carried out in microtiter plates at 25° C. for 60 minutes. The reactions are stopped by addition of NaOH. The enzyme activity was determined by measurement of the absorbance at 405 nm with appropriate corrections for absorbance at 405 nm of the compounds and p-nitrophenyl phosphate. The data are analyzed using nonlinear regression fit to classical Michaelis Menten enzyme kinetic models. Inhibition is expressed as Ki values in μM.
As for `CCOc1cccc2cc(C(=O)NC[C@@H]3NCCc4c3sc(NC(=O)C(=O)O)c4C(=O)O)oc12` [Example 20, 7-(S)-(((7-Ethoxy-benzofuran-2-carbonyl)amino)methyl)-2-(oxalyl-amino)-4,5,6,7-tetrahydro-thieno[2,3-c]pyridine-3-carboxylic acid], affinity was put at a Ki of 110 nM.

With `O=C(CCc1ccc2ccccc2c1)NCC1NCCc2c1sc(NC(=O)C(=O)O)c2C(=O)O` (centres unmarked) [Example 13, 7-((3-Naphthalen-2-yl-propionylamino)methyl)-2-(oxalyl-amino)-4,5,6,7-tetrahydro-thieno[2,3-c]pyridine-3-carboxylic acid], affinity was put at a Ki of 70 nM.

Regarding `CC(=O)NCC1NCCc2c1sc(NC(=O)C(=O)O)c2C(=O)O` (centres unmarked) [Example 31, 7-(Acetylamino-methyl)-2-(oxalyl-amino)-4,5,6,7-tetrahydro-thieno[2,3-c]pyridine-3-carboxylic acid], the Ki is 1100 nM.

Take `O=C(O)C(=O)Nc1sc2c(c1C(=O)O)CCN[C@@H]2CNC(=O)c1cn(Cc2ccccc2)c2ccccc12` [Example 27, 7-(R)-(((1-Benzyl-1H-indole-3-carbonyl)amino)methyl)-2-(oxalyl-amino)-4,5,6,7-tetrahydro-thieno[2,3-c]pyridine-3-carboxylic acid]: affinity was put at a Ki of 2100 nM. Compound `O=C(O)C(=O)Nc1sc2c(c1C(=O)O)CCN[C@H]2CNC(=O)c1ccc(-c2cccc(-c3ccccc3)c2)cc1` [Example 36] yielded a Ki of 42 nM. This Ki is about 50-fold lower than that of the compound before. As for `CC(C)(N)CCCC(=O)NCC1NCCc2c1sc(NC(=O)C(=O)O)c2C(=O)O` (centres unmarked) [Example 32, 7-((5-Amino-5-methyl-hexanoylamino)methyl)-2-(oxalyl-amino)-4,5,6,7-tetrahydro-thieno[2,3-c]pyridine-3-carboxylic acid], the Ki amounted to 78 nM. This Ki lies about 1.9-fold higher than the previous one.

With `O=C(O)C(=O)Nc1sc2c(c1C(=O)O)CCN[C@@H]2CNC(=O)c1cc2cc(O)ccc2[nH]1` [Example 26, 7-(R)-(((5-Hydroxy-1H-indole-2-carbonyl)amino)methyl)-2-(oxalyl-amino)-4,5,6,7-tetrahydro-thieno[2,3-c]pyridine-3-carboxylic acid], the affinity, expressed as Ki, was 2600 nM. `CCOC(=O)N1CCc2c(sc(NC(=O)C(=O)O)c2C(=O)O)C1CNC(=O)c1cc2cc(O)ccc2[nH]1` (centres unmarked) [Example 42, 7-(((5-Hydroxy-1H-indole-2-carbonyl)amino)methyl)-2-(oxalyl-amino)-4,7-dihydro-5H-thieno[2,3-c]pyridine-3,6-dicarboxylic acid 6-ethyl ester] came in with a Ki of 120 nM. `O=C(O)C(=O)Nc1sc2c(c1C(=O)O)CCNC2CNC(=O)c1cccc2ccccc12` (centres unmarked) [Example 12, 7-(((Naphthalene-1-carbonyl)amino)methyl)-2-(oxalyl-amino)-4,5,6,7-tetrahydro-thieno[2,3-c]pyridine-3-carboxylic acid] came in with a Ki of 120 nM.

The compound `O=C(O)C(=O)Nc1sc2c(c1C(=O)O)CCN[C@H]2CNCc1ccc(Oc2ccccc2)cc1` [Example 28, 2-(Oxalyl-amino)-7-(S)-((4-phenoxy-benzylamino)methyl)-4,5,6,7-tetrahydro-thieno[2,3-c]pyridine-3-carboxylic acid] gave a Ki of 58 nM. In turn, `CCOC(=O)c1c(NC(=O)C(=O)O)sc2c1CCNC2CNC(=O)c1cc2cc(O)ccc2[nH]1` (centres unmarked) [Example 41, 7-(((5-Hydroxy-1H-indole-2-carbonyl)amino)methyl)-2-(oxalyl-amino)-4,7-dihydro-5H-thieno[2,3-c]pyridine-3-carboxylic acid ethyl ester] yielded an inhibition constant Ki of 900 nM.

`O=C(O)C(=O)Nc1sc2c(c1C(=O)O)CCN[C@H]2CNC(=O)c1cc2cc(O)ccc2[nH]1` [Example 25, 7-(S)-(((5-Hydroxy-1H-indole-2-carbonyl)amino)methyl)-2-(oxalyl-amino)-4,5,6,7-tetrahydro-thieno[2,3-c]pyridine-3-carboxylic acid] registered an inhibitory constant (Ki) of 3200 nM. As for `CC(=O)Nc1ccc(S(=O)(=O)NC[C@@H]2NCCc3c2sc(NC(=O)C(=O)O)c3C(=O)O)cc1` [Example 22, 7-(S)-((4-Acetylamino-benzenesulfonylamino)methyl)-2-(oxalyl-amino)-4,5,6,7-tetrahydro-thieno[2,3-c]pyridine-3-carboxylic acid], the inhibition constant (Ki) was 91 nM. Compared with the last compound, the Ki is about 35-fold lower. Turning to `O=C(O)C(=O)Nc1sc2c(c1C(=O)O)CCNC2CNC(=O)c1c(O)ccc2ccccc12` (centres unmarked) [Example 14, 7-(((2-Hydroxy-naphthalene-1-carbonyl)amino)methyl)-2-(oxalyl-amino)-4,5,6,7-tetrahydro-thieno[2,3-c]pyridine-3-carboxylic acid], the inhibitory constant (Ki) is 70 nM. Consider `O=C(O)C(=O)Nc1sc2c(c1C(=O)O)CCNC2CNC(=O)c1ccccc1` (centres unmarked) [Example 1, 7-(Benzoylamino-methyl)-2-(oxalyl-amino)-4,5,6,7-tetrahydro-thieno[2,3-c]pyridine-3-carboxylic acid], for which the affinity corresponds to a Ki of 490 nM. In the case of `O=C(O)C(=O)Nc1sc2c(c1C(=O)O)CCNC2CNC(=O)c1ccc(Cc2ccccc2)cc1` (centres unmarked) [Example 11, 7-((4-Benzyl-benzoylamino)methyl)-2-(oxalyl-amino)-4,5,6,7-tetrahydro-thieno[2,3-c]pyridine-3-carboxylic acid] it was 140 nM; in that of `O=C(O)C(=O)Nc1sc2c(c1C(=O)O)CCNC2CNC(=O)c1ccc(NC(=O)c2ccccc2)cc1` (centres unmarked) [Example 6, 7-((4-Benzoylamino-benzoylamino)methyl)-2-(oxalyl-amino)-4,5,6,7-tetrahydro-thieno[2,3-c]pyridine-3-carboxylic acid], 330 nM. Then `CC(=O)OCOC(=O)Oc1ccc2[nH]c(C(=O)NC[C@H]3c4sc(NC(=O)C(=O)O)c(C(=O)O)c4CCN3C(=O)OCOC(C)=O)cc2c1` [Example 35, 7-(S)-(((5-Acetoxymethoxycarbonyloxy-1H-indole-2-carbonyl)amino)methyl)-2-(oxalyl-amino)-4,7-dihydro-5H-thieno[2,3-c]pyridine-3,6-dicarboxylic acid 6-acetoxymethyl ester], with 32 nM; and `O=C(O)C(=O)Nc1sc2c(c1C(=O)O)CCN[C@H]2CNC(=O)c1cc2cc(F)ccc2[nH]1` [Example 33, 7-(S)-(((5-Fluoro-1H-indole-2-carbonyl)amino)methyl)-2-(oxalyl-amino)-4,5,6,7-tetrahydro-thieno[2,3-c]pyridine-3-carboxylic acid], with 18 nM; and `CCOC(=O)c1c(NC(=O)C(=O)OCC(C)(C)C)sc2c1CCNC2CNC(=O)c1cc2cc(O)ccc2[nH]1` (centres unmarked) [Example 40, 2-((2,2-Dimethyl-propoxyoxalyl)amino)-7-(((5-hydroxy-1H-indole-2-carbonyl)-amino)methyl)-4,5,6,7-tetrahydro-thieno[2,3-c]pyridine-3-carboxylic acid ethyl ester], with 1300 nM.

The compound `O=C(O)C(=O)Nc1sc2c(c1C(=O)O)CCN[C@H]2CNC(=O)c1cc2ccccc2[nH]1` [Example 37, 7-(S)-(((1H-Indole-2-carbonyl)amino)methyl)-2-(oxalyl-amino)-4,5,6,7-tetrahydro-thieno[2,3-c]pyridine-3-carboxylic acid] gave a Ki of 31 nM. In the case of `O=C(O)C(=O)Nc1sc2c(c1C(=O)O)CCN[C@H]2CNC(=O)c1ccc2nc[nH]c2c1` [Example 24, 7-(S)-(((3H-Benzoimidazole-5-carbonyl)amino)methyl)-2-(oxalyl-amino)-4,5,6,7-tetrahydro-thieno[2,3-c]pyridine-3-carboxylic acid] it was 640 nM; in that of `O=C(O)C(=O)Nc1sc2c(c1C(=O)O)CCNC2CNC(=O)c1cn(Cc2ccccc2)c2ccccc12` (centres unmarked) [Example 30, 7-(((1-Benzyl-1H-indole-3-carbonyl)amino)methyl)-2-(oxalyl-amino)-4,5,6,7-tetrahydro-thieno[2,3-c]pyridine-3-carboxylic acid], 70 nM; in that of `CCOC(=O)C(=O)Nc1sc2c(c1C(=O)O)CCNC2CNC(=O)c1cc2cc(O)ccc2[nH]1` (centres unmarked) [Example 38, 2-(Ethoxyoxalyl-amino)-7-(((5-hydroxy-1H-indole-2-carbonyl)amino)methyl)-4,5,6,7-tetrahydro-thieno[2,3-c]pyridine-3-carboxylic acid], 63 nM. In turn, `O=C(CCc1ccc(-c2ccccc2)cc1)NCC1NCCc2c1sc(NC(=O)C(=O)O)c2C(=O)O` (centres unmarked) [Example 9, 7-((3-Biphenyl-4-yl-propionylamino)methyl)-2-(oxalyl-amino)-4,5,6,7-tetrahydro-thieno[2,3-c]-pyridine-3-carboxylic acid] showed a Ki of 62 nM.

On to `O=C(NC[C@@H]1NCCc2c1sc(NC(=O)C(=O)O)c2C(=O)O)Nc1ccc(Oc2ccccc2)cc1` [Example 29, 2-(Oxalyl-amino)-7-(S)-(3-(4-phenoxy-phenyl)ureidomethyl)-4,5,6,7-tetrahydro-thieno[2,3-c]pyridine-3-carboxylic acid], for which the Ki amounted to 31 nM.
